Experimental data: US20170027172A1, “USE OF SUBSTITUTE OXO TETRAHYDROQUINOLINE SULFONAMIDES OR SALTS THEREOF FOR RAISING STRESS TOLERANCE OF PLANTS” (BAYER CROPSCIENCE AKTIENGESELLSCHAFT, priority 2014, published 2017)

biological target: T1, phosphatase ABI1 via the co-regulator RCAR11/PYR1 (Arabidopsis thaliana, UniProt O49686+P49597); test: In vitro inhibition of the phosphatase ABI1 via the co-regulator RCAR11/PYR1, MUP dephosphorylation; format: biochemical; parameters: dose or concentration left out as unconfirmed; settings: in a solution of DMSO and water; fluorescence at 460 nm
T1 sequence (O49686 1-191): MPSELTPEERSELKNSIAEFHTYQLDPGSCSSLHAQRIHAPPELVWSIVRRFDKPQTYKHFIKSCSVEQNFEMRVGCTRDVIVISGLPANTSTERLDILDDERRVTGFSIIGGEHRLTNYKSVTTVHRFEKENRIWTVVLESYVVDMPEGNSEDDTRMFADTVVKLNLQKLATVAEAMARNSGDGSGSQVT
T1 sequence (P49597 1-434): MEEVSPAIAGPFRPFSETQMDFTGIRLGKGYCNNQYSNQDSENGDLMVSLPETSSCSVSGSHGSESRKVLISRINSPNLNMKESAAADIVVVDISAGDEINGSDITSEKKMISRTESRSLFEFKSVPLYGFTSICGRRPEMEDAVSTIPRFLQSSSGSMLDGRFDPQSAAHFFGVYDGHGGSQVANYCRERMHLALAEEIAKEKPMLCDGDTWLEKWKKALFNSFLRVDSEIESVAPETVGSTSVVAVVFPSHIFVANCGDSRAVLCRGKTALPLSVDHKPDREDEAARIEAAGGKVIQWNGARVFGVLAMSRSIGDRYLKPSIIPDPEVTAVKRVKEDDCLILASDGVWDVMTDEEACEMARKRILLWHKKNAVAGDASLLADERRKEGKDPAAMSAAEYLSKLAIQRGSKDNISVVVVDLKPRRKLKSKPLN
Source text: Effects of the phytohormone abscisic acid (ABA) on the behavior of plants under abiotic stress and the mechanism of action of ABA are described in the literature (cf. Abrams et al., WO97/23441, Park et al. Science, 2009, 324, 1068; Grill et al. Science, 2009, 324, 1064; Tanokura et al. Biophysics, 2011, 7, 123; Schroeder et al. Plant J. 2010, 61, 290). Therefore, it is possible with the aid of a suitable in vitro test system to derive a correlation between the action of ABA and the stress response of a plant under abiotic stress. In the event of water deficiency (drought stress), plants form the phytohormone abscisic acid (ABA). This binds, along with a co-regulator (Regulatory Component of ABA-Receptor=RCAR according to Grill et al. Science, 2009, 324, 1064 or PYR/PYL according to Cutler et al. Science, 2009, 324, 1068), to a phosphatase (e.g. ABI1, a type 2C protein phosphatase, also abbreviated to PP2C) and inhibits its activity. As a result, a “downstream” kinase (e.g. SnRK2) is no longer dephosphorylated. This kinase, which is thus active, via phosphorylation of transcription factors (e.g. AREB/ABF, cf. Yoshida et al., 2010, 61, 672), switches on a genetic protection program to increase drought stress tolerance. The assay described hereinafter utilizes the inhibition of the phosphatase ABI1 via the co-regulator RCAR11/PYR1 aus Arabidopsis thaliana. For the determination of activity, the dephosphorylation of 4-methylumbelliferyl phosphate (MUP) was measured at 460 nm. The in vitro assay was conducted in Greiner 384-well PS microplates F-well, using two controls: a) 0.5% dimethyl sulfoxide (DMSO) and b) 5 μM abscisic acid (ABA). The assay described here was generally conducted with substance concentrations of the appropriate chemical test substances in a concentration range of 0.1 μM to 100 μM in a solution of DMSO and water. The substance solution thus obtained, if necessary, was stirred with esterase from porcine liver (EC 3.1.1.1) at room temperature for 3 h and centrifuged at 4000 rpm for 30 min. A total volume of 45 μl was introduced into each cavity of the microplate, having the following composition: • 1) 5 μl of substance solution, i.e. a) DMSO 5% or b) abscisic acid solution or c) the corresponding example compound of the general formula (I) dissolved in 5% DMSO. • 2) 20 μl of enzyme buffer mix, composed of a) 40% by vol. of enzyme buffer (10 mL contain equal proportions by volume of 500 mM Tris-HCl pH 8, 500 mM NaCl, 3.33 mM MnCl2, 40 mM dithiothreitol (DTT)), b) 4% by vol. of ABI1 dilution (protein stock solution was diluted so as to give, after addition, a final concentration in the assay of 0.15 μg ABI1/well), c) 4% by vol. of RCAR11 dilution (enzyme stock was diluted so as to give, on addition of the dilution to the enzyme buffer mix, a final concentration in the assay of 0.30 μg enzyme/well), d) 5% by vol. of Tween20 (1%), e) 47% by vol. H2O bi-dist. • 3) 20 μl of substrate mix, composed of a) 10% by vol. of 500 mM Tris-HCl pH8, b) 10% by vol. of 500 mM NaCl, c) 10% by vol. of 3.33 mM MnCl2, d) 5% by vol. of 25 mM MUP, 5% by vol. of Tween20 (1%), 60% by vol. of H2O bi-dist.
Enzyme buffer mix and substrate mix were made up 5 minutes prior to the addition and warmed to a temperature of 35° C. On completion of pipetting of all the solutions and on completion of mixing, the plate was incubated at 35° C. for 20 minutes. Finally, a relative fluorescence measurement was made at 35° C. with a BMG Labtech “POLARstar Optima” microplate reader using a 340/10 nm excitation filter and a 460 nm emission filter. The efficacy of the compounds of the general formula (I) is reported in the table which follows using abscisic acid […] as comparative substance (No. 37) according to the following classification: ++++ (inhibition≧90%), +++ (90%>inhibition≧70%), ++ (70%>inhibition≧50%), + (50%>inhibition≧30%). […]

SMILES	ABI1 inhibition
O=C1CCc2cc(NS(=O)(=O)Cc3ccc(F)cc3)ccc2N1CC1CC1(Cl)Cl (racemic) [A32-158]	+ (50%>inhibition≧30%)
O=C1CCc2cc(NS(=O)(=O)Cc3ccc(Cl)cc3)ccc2N1CC1CC1(Cl)Cl (racemic) [A32-165]	++ (70%>inhibition≧50%)
Cc1ccc(CS(=O)(=O)Nc2ccc3c(c2)CCC(=O)N3CC(F)F)cc1 [A1-152]	++++ (inhibition≧90%)
O=C1CCc2cc(NS(=O)(=O)Cc3ccc(Cl)cc3)ccc2N1CC(F)F [A1-165]	++++ (inhibition≧90%)
O=C1CCc2cc(NS(=O)(=O)Cc3cccc(Cl)c3)ccc2N1CC(F)F [A1-166]	++ (70%>inhibition≧50%)
O=C1CCc2cc(NS(=O)(=O)Cc3ccc(Br)cc3)ccc2N1CC(F)F [A1-172]	++++ (inhibition≧90%)
O=C1CCc2cc(NS(=O)(=O)Cc3cccc(Br)c3)ccc2N1CC(F)F [A1-173]	++ (70%>inhibition≧50%)
O=C1CCc2cc(NS(=O)(=O)Cc3ccc([N+](=O)[O-])cc3)ccc2N1CC(F)F [A1-175]	+++ (90%>inhibition≧70%)
O=C1CCc2cc(NS(=O)(=O)Cc3ccc(C(F)(F)F)cc3)ccc2N1CC(F)F [A1-178]	++++ (inhibition≧90%)
N#Cc1ccc(CS(=O)(=O)Nc2ccc3c(c2)CCC(=O)N3CC(F)F)cc1 [A1-181]	++++ (inhibition≧90%)
O=C1CCc2cc(NS(=O)(=O)Cc3ccccc3)ccc2N1CC(F)(F)F [A2-151]	++++ (inhibition≧90%)
Cc1ccc(CS(=O)(=O)Nc2ccc3c(c2)CCC(=O)N3CC(F)(F)F)cc1 [A2-152]	++++ (inhibition≧90%)
Cc1cccc(CS(=O)(=O)Nc2ccc3c(c2)CCC(=O)N3CC(F)(F)F)c1 [A2-153]	+++ (90%>inhibition≧70%)
O=C1CCc2cc(NS(=O)(=O)Cc3ccc(F)cc3)ccc2N1CC(F)(F)F [A2-158]	++++ (inhibition≧90%)
O=C1CCc2cc(NS(=O)(=O)Cc3ccc(Cl)cc3)ccc2N1CC(F)(F)F [A2-165]	++++ (inhibition≧90%)
O=C1CCc2cc(NS(=O)(=O)Cc3cccc(Cl)c3)ccc2N1CC(F)(F)F [A2-166]	+++ (90%>inhibition≧70%)
O=C1CCc2cc(NS(=O)(=O)Cc3ccccc3Cl)ccc2N1CC(F)(F)F [A2-168]	++ (70%>inhibition≧50%)
O=C1CCc2cc(NS(=O)(=O)Cc3ccc(Br)cc3)ccc2N1CC(F)(F)F [A2-172]	++++ (inhibition≧90%)
O=C1CCc2cc(NS(=O)(=O)Cc3cccc(Br)c3)ccc2N1CC(F)(F)F [A2-173]	+++ (90%>inhibition≧70%)
O=C1CCc2cc(NS(=O)(=O)Cc3ccc([N+](=O)[O-])cc3)ccc2N1CC(F)(F)F [A2-175]	++++ (inhibition≧90%)
O=C1CCc2cc(NS(=O)(=O)Cc3cccc([N+](=O)[O-])c3)ccc2N1CC(F)(F)F [A2-176]	+++ (90%>inhibition≧70%)

SMILES	ABI1 inhibition
O=C1CCc2cc(NS(=O)(=O)Cc3ccccc3[N+](=O)[O-])ccc2N1CC(F)(F)F [A2-177]	+++ (90%>inhibition≧70%)
O=C1CCc2cc(NS(=O)(=O)Cc3ccc(C(F)(F)F)cc3)ccc2N1CC(F)(F)F [A2-178]	++++ (inhibition≧90%)
O=C1CCc2cc(NS(=O)(=O)Cc3cccc(C(F)(F)F)c3)ccc2N1CC(F)(F)F [A2-179]	+++ (90%>inhibition≧70%)
N#Cc1ccc(CS(=O)(=O)Nc2ccc3c(c2)CCC(=O)N3CC(F)(F)F)cc1 [A2-181]	++++ (inhibition≧90%)
Cc1ccc(CS(=O)(=O)Nc2ccc3c(c2)CCC(=O)N3CCC(F)(F)F)cc1 [A7-152]	++++ (inhibition≧90%)
O=C1CCc2cc(NS(=O)(=O)Cc3ccc(Cl)cc3)ccc2N1CCC(F)(F)F [A7-165]	++++ (inhibition≧90%)
N#Cc1ccc(CS(=O)(=O)Nc2ccc3c(c2)CCC(=O)N3CCC(F)(F)F)cc1 [A7-181]	++++ (inhibition≧90%)
N#Cc1cccc(CS(=O)(=O)Nc2ccc3c(c2)CCC(=O)N3CCC(F)(F)F)c1 [A7-182]	++ (70%>inhibition≧50%)
Cc1ccc(CS(=O)(=O)Nc2ccc3c(c2)CCC(=O)N3CC(F)(F)C(F)(F)F)cc1 [A10-152]	++++ (inhibition≧90%)
O=C1CCc2cc(NS(=O)(=O)Cc3ccc(Cl)cc3)ccc2N1CC(F)(F)C(F)(F)F [A10-165]	++++ (inhibition≧90%)
N#Cc1ccc(CS(=O)(=O)Nc2ccc3c(c2)CCC(=O)N3CC(F)(F)C(F)(F)F)cc1 [A10-181]	++++ (inhibition≧90%)
Cc1ccc(CS(=O)(=O)Nc2ccc3c(c2)CCC(=O)N3CC#N)cc1 [A16-152]	++ (70%>inhibition≧50%)
N#CCN1C(=O)CCc2cc(NS(=O)(=O)Cc3ccc(C(F)(F)F)cc3)ccc21 [A16-178]	++ (70%>inhibition≧50%)
Cc1cccc(CS(=O)(=O)Nc2ccc3c(c2)CCC(=O)N3CC2CC2)c1 [A19-153, N-[1-(Cyclopropylmethyl)-2-oxo-1,2,3,4-tetrahydroquinolin-6-yl]-1-(3-methylphenyl)methanesulfonamide]	+++ (90%>inhibition≧70%)
O=C1CCc2cc(NS(=O)(=O)Cc3ccc(Cl)cc3)ccc2N1CC1CC1 [A19-165]	++++ (inhibition≧90%)
O=C1CCc2cc(NS(=O)(=O)Cc3ccc([N+](=O)[O-])cc3)ccc2N1CC1CC1 [A19-175]	++++ (inhibition≧90%)
CCc1ccc(CS(=O)(=O)Nc2ccc3c(c2)CCC(=O)N3CC2CC2)cc1 [A19-325, N-[1-(Cyclopropylmethyl)-2-oxo-1,2,3,4-tetrahydroquinolin-6-yl]-1-(4-ethylphenyl)methanesulfonamide]	++++ (inhibition≧90%)
CC(C)(C)c1ccc(CS(=O)(=O)Nc2ccc3c(c2)CCC(=O)N3CC2CC2)cc1 [A19-332]	++++ (inhibition≧90%)
CCc1ccc(S(=O)(=O)Nc2ccc3c(c2)CCC(=O)N3CC2CC2)cc1 [A19-601]	+++ (90%>inhibition≧70%)
Cc1ccc(CS(=O)(=O)Nc2ccc3c(c2)CCC(=O)N3CC2CCC2)cc1 [A21-152]	++++ (inhibition≧90%)
O=C1CCc2cc(NS(=O)(=O)Cc3ccc(F)cc3)ccc2N1CC1CCC1 [A21-158]	++++ (inhibition≧90%)
